The values below come from patent US8515150B2, “Mathematical image analysis based cell reprogramming with applications for epigenetic and non-epigenetic base induced pluripotent stem cell derivation” (The Charles Stark Draper Laboratory, Inc., priority 2009, dated 2013).

Series [1] has as its system hESC. Particulars: independent of feeders or recombinant growth factors; cited from earlier work.
The subject of series [2] is hESC. Kind of series: TSA toxicity in hESC. The class given is cell-based, human.
For series [3], the system named is fibroblasts. Particulars: added to fibroblasts, alone; cited from earlier work.
The test system of series [4] is hESC. Briefly: BMP4-induced differentiation of hESC colonies. The class given is cell-based, human. Particulars: hESC line WA07, 100 ng/ml BMP4, 4 days; confirmed by CDX2 immunostaining. As for the experimental part: Pluripotent hESC cultures, line WA07 (a, d, g, i) were compared to hESC that were differentiated in vitro for 4 days in culture with 100 ng/ml BMP4 (b, e, h, j). The squamous epithelial monolayer that was formed is trophectoderm, found in the outer shell of blastocysts and destined to form the placenta. Fixed colonies were stained with the DNA dye, Hoechst 33342 (a, b) and with antibodies to the pluripotency marker OCT4 (d) and the trophectoderm marker, CDX2 (e). Morphological differences that are characteristic of the spreading colonies include an increase in cell (c) and nuclear size (f). The Hoechst image of 4 colonies were analyzed for nuclear size and number of nuclei per colony area (average cell area) and differences between pluripotent and trophectoderm colony morphology were significant at p<0.05 by Students T test. Colony morphology in live cells (g, h), not fixed and immunostained as was performed in (a-f), is provided by the distribution of spatial frequencies in the image (i, j). […] Spatial frequencies are higher in pluripotent than in TE colonies and can be more completely measured using wavelet analysis, a generalized 2D, multiscalar measure of image texture. […] Empirical probability density functions (k-l) for three detail subbands of the line scans in (i) and (j) quantify the concept of spatial frequency. […]

As for `CC(/C=C/C(=O)NO)=C\[C@@H](C)C(=O)c1ccc(N(C)C)cc1` [TSA, trichostatin A], the effect on self-renewal result in series [1] is reported as “activates a self-renewal program in hESC”. The “highest concentration without toxic effects” value in series [2] came out at 1 nM.
As to “FGF2: single growth factor added to media or fibroblasts”, the “effect on expression of endogenous pluripotency markers” value in series [3] is “increased expression of endogenous pluripotency markers”.

B1: BMP4: growth factor bone morphogenic protein, BMP4 (protein, UniProt P12644 293-408, looked up)
Bone morphogenetic protein 4: SPKHHSQRARKKNKNCRRHSLYVDFSDVGWNDWIVAPPGYQAFYCHGDCPFPLADHLNSTNHAIVQTLVNSVNSSIPKACCVPTELSAISMLYLDEYDKVVLKNYQEMVVEGCGCR
As to B1, the differentiation outcome in series [4] is “form trophectoderm”.
